Data on one molecule can be found in US8362074B2, “Synergistic insecticidal compositions” (priority 1999, dated 2013).

The term mortality denotes the percentage killed.

Data set [1] relates to adult male German cockroaches (Blattella germanica). Kind of data set: Treated dog chow bait test on adult male German cockroaches. It counts as in vivo. The settings on record: 1.00 % active ingredient. Here is the method: In this evaluation, adult male German cockroaches (Blattella germanica) are used. For each test, a 4.0 g portion of ground Purina Dog Chow (Hi-Pro Glo®) is treated with an acetone solution of test compound alone or in combination with a second test compound. After treatment, the acetone is evaporated and the treated dog chow is placed in a ¾ oz plastic cup which is placed in a harborage made of folded sheets of blotter paper placed in a plastic box (16″ L×11″ W×6″ H). The plastic box (test arena) is also fitted with a 1 oz narrow mouth bottle with 2 dental wicks inserted at the mouth. A control box is prepared in the same manner using ground dog chow which has been treated with reagent grade acetone. Each treatment is replicated three times. Into each test arena are placed 20 healthy adult male cockroaches which have been reared in an insectary. The test arenas are then stored at 76° F. and mortality is determined daily by visual examination.

The test system of data set [2] is Helicoverpa zea (cotton bollworm) larvae. Kind of data set: Treated artificial diet surface test on cotton bollworm larvae. It counts as in vivo. The procedure:
In this evaluation, Helicoverpa zea (cotton bollworm) larvae are obtained from a laboratory colony. Test compounds are dissolved in 1:1 v/v acetone/water. Plastic bioassay trays (C-D International, Pitman, N.J.) are used as test arenas. Each tray contains 32 open-faced wells, 4.0×4.0×2.5 cm. A portion (5 ml) of a wheat germ-soybean flour-based artificial diet (Southland Products, Lake Village, Ark.) is poured into each well. After the diet hardened, 0.4 ml of test solution is pipetted onto the diet surface in each well. Test solutions are evenly spread over surfaces of diet by picking up the tray and gently tilting it from side to side. Trays are then held in a vented area for about 2 h, until water is no longer pooled on diet surfaces. A single 4-day-old H. zea larva is then placed on the surface of diet in each well. After larval infestation, each well is covered with an adhesive, vented, clear plastic sheet.
All test arenas are held under constant fluorescent light and a temperature of about 27° C. for duration of the assay. Larval mortality is determined at 2, 3, 4 and 7 days after treatment. […] A total of 32 insects were tested for each treatment.

Each structure is given as a SMILES string.

On to `CC1(C)CNC(=NN=C(/C=C/c2ccc(C(F)(F)F)cc2)/C=C/c2ccc(C(F)(F)F)cc2)NC1` [Compound B, hydramethylnon], for which the mortality at 1 % strength in data set [1] (72 h, 3 days after treatment) came to 0%; in data set [1] (96 h, 4 days after treatment), 5%; in data set [1] (120 h, 5 days after treatment), 28.3%; in data set [1] (144 h, 6 days after treatment), 71.7%; in data set [1] (168 h, 7 days after treatment) it was 90%; in data set [1] (192 h, 8 days after treatment) it was 93.3%. The “% Mortality” value in data set [2] (100 OB/ml, 2 days after treatment) is 3.1%; in data set [2] (100 OB/ml, 3 days after treatment), 3.1%; in data set [2] (100 OB/ml, 4 days after treatment), 3.1%; in data set [2] (100 OB/ml, 7 days after treatment), 15.6%; in data set [2] (500 OB/ml, 2 days after treatment), 0.0%; in data set [2] (500 OB/ml, 3 days after treatment), 9.4%. The “% Mortality” value is listed as 18.8% in data set [2] (500 OB/ml, 4 days after treatment); 40.6% in data set [2] (500 OB/ml, 7 days after treatment); 3.1% in data set [2] (1000 OB/ml, 2 days after treatment); 34.4% in data set [2] (1000 OB/ml, 3 days after treatment); 50.5% in data set [2] (1000 OB/ml, 4 days after treatment); 62.5% in data set [2] (1000 OB/ml, 7 days after treatment).
